{"source": "patent US11302422B2", "about": "“Methods and systems for identifying a drug mechanism of action using network dysregulation” (THE TRUSTEES OF COLUMBIA UNIVERSITY IN THE CITY OF NEW YORK, priority 2014, dated 2022)", "key": {"U-2932 cells [1]": {"tested_on": "U-2932 cells", "experiment": "Cell viability, 24 hr IC50", "type": "cell-based", "conditions": "Homo sapiens, U2932", "description": "Compounds were selected based on their activity in a primary screen of FDA-approved, late-stage experimental, and tool compounds. OCI-LY3, OCI-LY7 and U-2932 cells were seeded in white, tissue culture-treated 96-well plates at a density of 5×10^4 cells per well in 100 μL total volume using the Janus automated liquid handling system (Perkin Elmer Inc.). After 12 hrs of incubation at 37° C. the plates were allowed to cool to room temperature prior to compound addition via the Janus. Compounds were transferred as 1 μL of DMSO stock solutions into the assay plates (plate based triplication), which were subsequently placed on an orbital shaker for 5 minutes and then placed back in the incubator. […] Plates were shaken 5 minutes on an orbital shaker before data acquisition in an Envision (PerkinElmer Inc.) (0.5 second read time, enhanced luminescence). IC20 values were determined using IDBS Activity Base utilizing a four parameter fit model.\nU-2932 cells were seeded in 10 cm dish (2×10^6/dish) and grown at 37° C. for 16 hrs. […] After the debris was pelleted and removed, both oxidized and reduced glutathione in 120 μL of sample was quantified in technical triplicate using QuantiChrome glutathione assay kit (BioAssay Sytems). The glutathione quantity was normalized to protein concentration measured with Bradford assay (Bio-Rad)."}, "U-2932 cells [2]": {"tested_on": "U-2932 cells", "experiment": "Glutathione (GSH) level in treated cells", "type": "cell-based", "conditions": "1 mM, 24 hrs, versus DMSO", "description": "U-2932 cells were seeded in 10 cm dish (2×10^6/dish) and grown at 37° C. for 16 hrs. Cells were treated with vehicle (0.4% DMSO), 1 mM sulfasalazine (24 hr IC50) or 1 mM altretamine (double the 24 hr IC50), and incubated for 24 hrs. Cells were then harvested, pelleted, washed once with 400 μl ice-cold PBS containing 1 mM EDTA and sonicated. After the debris was pelleted and removed, both oxidized and reduced glutathione in 120 μL of sample was quantified in technical triplicate using QuantiChrome glutathione assay kit (BioAssay Sytems). The glutathione quantity was normalized to protein concentration measured with Bradford assay (Bio-Rad)."}, "U-2932 cells [3]": {"tested_on": "U-2932 cells", "experiment": "Lipid ROS by C11-BODIPY staining and flow cytometry", "type": "cell-based", "conditions": "BODIPY-C11, versus DMSO", "description": "U-2932 cells (2×10^5) were seeded in 6-well plates and incubated at 37° C. for 16 hrs. Cells were treated with test compounds for the indicated time, then harvested, pelleted and washed once with PBS. For lipid ROS detections, cells were re-suspended with Hanks Balanced Salt Solution (HBSS, Life Technologies) containing C11-BODIPY (581/591) (2 μM) (Life Technologies) and incubated for 10 minutes at 37° C. Cells were then pelleted, re-suspended in 500 μL HBSS, strained through […] cell strainer (BD Falcon), and analyzed using BD Accuri C6 flow cytometer (BD Biosciences). C11-BODIPY signal was measured using FL1 channel. Experiments were done in biological triplicates, and a representative result was shown."}, "GPX4": {"molecular_target": "T1, GPX4 (Homo sapiens, UniProt P36969)", "T1 construct": "endogenous in cells; host or cells: U-2932 cells (cleared whole-cell lysate)", "T1 sequence (P36969 1-197)": "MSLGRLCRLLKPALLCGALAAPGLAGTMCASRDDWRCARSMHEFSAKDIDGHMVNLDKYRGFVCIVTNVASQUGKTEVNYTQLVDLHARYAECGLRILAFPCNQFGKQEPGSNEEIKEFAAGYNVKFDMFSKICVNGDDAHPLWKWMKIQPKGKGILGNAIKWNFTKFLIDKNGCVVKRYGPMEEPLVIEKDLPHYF", "experiment": "LC-MS based GPX4 assay (PC-OOH reduction) in lysates of treated cells", "type": "cell-based", "conditions": "lysates of altretamine treated U-2932 cells versus untreated lysate", "description": "GPX4 enzymatic activity assay was performed as follows. Briefly, 1×10^6 cells were re-suspended in the cell lysis buffer. Sonication was used to make cell lysates followed by centrifugation at 14,000 rpm for 10 minutes. Protein concentration of the cleared cell lysates was determined using a Bradford protein assay (Bio-Rad). Two hundred micrograms of cellular proteins was mixed with phosphatidyl choline hydroperoxide (PC—OOH), the GPX4 specific substrate, and reduced glutathione, a GPX4 cofactor. The mixture was incubated at 37° C. for 30 minutes followed by lipid extraction using a chloroform:methanol (2:1) solution. The lipid extract was evaporated using a rotary evaporator, and re-dissolved in 100% ethanol before injecting into LC-MS instrument for PC-OOH quantitation."}, "U-2-OS cells [4]": {"tested_on": "U-2-OS cells", "experiment": "Vincristine dose-response (alamar Blue growth inhibition) after siRNA-mediated gene silencing", "type": "cell-based", "description": "Small interfering RNA (siRNA) targeting each specified gene and siControl SMARTpools were obtained from Dharmacon Technologies (see Table 3). Reverse transfection was performed by preparing a solution of 1 mL of Opti-MEM (Invitrogen), […], of Lipofectamine-RNAiMAX reagent (Invitrogen) and 1.25 μL of 10 μM RNAi solution (final working concentration is […]), and incubating the mixture (1 mL/well) in a 6-well dish for 20 minutes at 37° C. U-2-OS cells were detached from culture flask, and re-suspended in 2× serum-containing media at a density of 4×10^5 cells/mL. One mL of cell suspension was transferred to each well containing the transfection mixture, and the 6-well plate was returned to culture incubator. After 48 hrs, cells were detached and reverse transfected again using the same procedures. After 48 hrs, cells were trypsinized and reseeded into 384-well format to determine sensitivity against vincristine. […] Plates were incubated further for 16 hrs to allow reduction of alamar Blue, which results in the generation of red fluorescence. The fluorescence intensity was determined using a Victor 3 plate reader (Perkin Elmer, Inc.), and used to calculated percent growth inhibition."}, "U-2-OS cells [5]": {"tested_on": "U-2-OS cells", "experiment": "Microtubule network visualised with anti-tubulin antibody", "type": "cell-based", "conditions": "vincristine 4 nM for 24 hrs, compared to DMSO / non-specific siRNA", "description": "Cells were grown on coverslips to ˜50% confluency and treated with compounds for 24 hrs. Cells were fixed with 3.7% formaldehyde solution in PBS for 15-30 minutes followed by washing with PBS 5 times. Cell membrane was permeabilized with 0.2% Triton-X in PBS for 10 minutes and rinsed once with TBS (10 mM Tris [pH 7.5], 150 mM NaCl). The permeabilized sample was blocked with 10% goat serum in TTBS (0.1% Tween-20 in TBS) for 30-60 minutes and washed once with TTBS. The microtubule network was probed with anti-tubulin antibody (Santa Cruz cat #sc-32293) in 1% goat serum in TTBS for 30-60 minutes at room temperature followed by washing in TTBS for 10 minutes. Alexa Fluor anti-mouse antibody (Invitrogen, cat #A-11005) was used as the secondary antibody to visualize the microtubule network using the 60× lens of a confocal microscope."}, "OCI-LY3 cells": {"tested_on": "OCI-LY3 cells", "experiment": "Mitomycin C dose-response with JAK2 inhibitor TG101348 (CellTiter-Glo)", "type": "cell-based, human", "conditions": "mitomycin C with TG101348 at 0.2, 0.4, 0.6 uM, 48 hrs", "description": "The JAK2-selective inhibitor TG101348 and Mitomycin C was purchased from Selleckchem and Tocris Bioscience respectively and were and dissolved in DMSO. OCI-LY3 cells were treated with the indicated compounds in 96-well plates and there growth was determined using the CellTiter-Glo Luminescent Cell Viability Assay (Promega Corp). Typically, 30,000 OCI-Ly3 cells per well in 200 μL of growth medium were grown for 48 hrs in the presence or absence (DMSO alone) of the desired compounds, and then assayed with CellTiter Glo according to manufacturer's instructions."}}, "note": "Entries after “also recorded” stand apart in the source; their conditions may differ."}
{"smiles": "O=C(O)c1cc(/N=N/c2ccc(S(=O)(=O)Nc3ccccn3)cc2)ccc1O", "note": "[sulfasalazine]", "values": [{"measurement": "IC50", "setting": "U-2932 cells [1]", "value": 1, "unit": "mM"}, {"measurement": "GSH levels", "setting": "U-2932 cells [2]", "value": "reduces the levels of active GSH compared to control"}, {"measurement": "GSH levels", "setting": "U-2932 cells [2]; listed as Sulfasalazine", "value": "depletion of GSH levels"}, {"measurement": "lipid-ROS levels", "setting": "U-2932 cells [3]", "value": "significantly increases the levels of lipid-ROS; also recorded: induce lipid-ROS accumulation"}]}
{"smiles": "CN(C)c1nc(N(C)C)nc(N(C)C)n1", "note": "[altretamine]", "values": [{"measurement": "GPX4 activity (residual PC-OOH signal)", "setting": "GPX4", "value": "decreases the activity of GPX4; also recorded: displayed a significant [PC—OOH+H^+] signal"}, {"measurement": "GSH levels", "setting": "U-2932 cells [2]", "value": "indistinguishable from the control; also recorded: did not deplete GSH levels"}, {"measurement": "lipid-ROS levels", "setting": "U-2932 cells [3]", "value": "significantly increases the levels of lipid-ROS; also recorded: induce lipid-ROS accumulation"}]}
{"smiles": "CC[C@]1(O)C[C@H]2CN(CCc3c([nH]c4ccccc34)[C@@](C(=O)OC)(c3cc4c(cc3OC)N(C=O)[C@H]3[C@@](O)(C(=O)OC)[C@H](OC(C)=O)[C@]5(CC)C=CCN6CC[C@]43[C@@H]65)C2)C1", "note": "[vincristine]", "values": [{"measurement": "change of vincristine sensitivity after CCNB1 silencing", "setting": "U-2-OS cells [4]; siRNA targeting CCNB1, 48 hrs vincristine", "value": "reduces the cell sensitivity; also recorded: had the opposite effect"}, {"measurement": "change of vincristine sensitivity after RPS3A silencing", "setting": "U-2-OS cells [4]; siRNA targeting RPS3A, 48 hrs vincristine", "value": "reduces the cell sensitivity; also recorded: had the opposite effect"}, {"measurement": "change of vincristine sensitivity after VHL silencing", "setting": "U-2-OS cells [4]; siRNA targeting VHL, 48 hrs vincristine", "value": "increases the sensitivity two-folds; also recorded: more than two-fold"}, {"measurement": "effect on microtubule network", "setting": "U-2-OS cells [5]", "value": "significantly altered microtubule network"}]}
{"smiles": "Cc1cnc(Nc2ccc(OCCN3CCCC3)cc2)nc1Nc1cccc(S(=O)(=O)NC(C)(C)C)c1", "note": "[TG101348]", "values": [{"measurement": "effect of JAK2 inhibition on mitomycin C activity (percent cell inhibition)", "setting": "OCI-LY3 cells", "value": "significant, dose-dependent antagonism"}]}
{"smiles": "CO[C@@]12[C@H](COC(N)=O)C3=C(C(=O)C(C)=C(N)C3=O)N1C[C@@H]1N[C@@H]12", "note": "[mitomycin C]", "values": [{"measurement": "effect of JAK2 inhibition on mitomycin C activity (percent cell inhibition)", "setting": "OCI-LY3 cells", "value": "reduction in the sensitivity of the cells; also recorded: significant, dose-dependent antagonism"}]}
